Experimental data taken from US7452894B2, “Purine derivatives as purinergic receptor antagonists” (Vernalis Research Limited, priority 2001, dated 2008).

SMILES	melting point
Nc1nc(-c2cc3ccccc3o2)c2nc[nH]c2n1 [Example 120, 6-(Benzofuran-2-yl)-1H-purine-2-amine]	310 to 310.3 °C
CCCNC(=O)Cn1cnc2c(-c3ccco3)nc(N)nc21 [Example 124, 2-Amino-6-(2-furyl)-N-n-propyl-9H-purine-9-acetamide]	258.7 to 260.1 °C
O=C(Nc1ccccc1)Nc1nc(-c2ccco2)c2nc[nH]c2n1 [Example 23, N-(6-(2-Furyl)-1H-purine-2-yl)-N'-phenylurea]	> 330 °C (dec.)
CN(C)c1nc(-c2ccco2)c2ncn(COCC[Si](C)(C)C)c2n1	81.5 to 82.2 °C
Nc1nc(-c2ccco2)c2ncn(Cc3ccc(C(=O)O)cc3)c2n1 [Example 216, 4-(2-Amino-6-(2-furyl)-9H-purine-9-ylmethyl)benzoic acid]	301.1 to 302.1 °C
Cc1ccc(-c2nc(N)nc3[nH]cnc23)o1 [Example 195, 6-(5-Methyl-2-furyl)-1H-purine-2-amine]	> 190 °C (dec.)
Nc1nc(-c2ccco2)c2ncn(CC(=O)Nc3ccccn3)c2n1 [Example 122, 2-Amino-6-(2-furyl)-N-(2-pyridyl)-9H-purine-9-acetamide]	242.5 to 243.6 °C
Nc1nc(-c2ccco2)c2ncn(Cc3ccc(C(=O)NCc4ccccc4)cc3)c2n1 [Example 227, 4-(2-Amino-6-(2-furyl)-9H-purine-9-ylmethyl)-N-benzylbenzamide]	170 to 171.9 °C
CN(Cc1ccccc1)C(=O)Cn1cnc2c(-c3ccco3)nc(N)nc21 [Example 145, 2-Amino-N-benzyl-6-(2-furyl)-N-methyl-9H-purine-9-acetamide]	224 to 224.1 °C
CCOC(=O)Cn1cnc2c(-c3ccco3)nc(-c3ccco3)nc21 [Example 72, Ethyl 2,6-bis(2-furyl)-9H-purine-9-acetate]	314 °C
Nc1nc(-c2ccn[nH]2)c2ncn(Cc3ccccc3F)c2n1 [Example 262, 9-(2-Fluorobenzyl)-6-(1H-pyrazol-3-yl)-9H-purine-2-amine]	257 to 259 °C
Nc1nc(-c2ccco2)c2ncn(CC(=O)NCCc3ccccc3)c2n1 [Example 123, 2-Amino-6-(2-furyl)-N-(2-phenylethyl)-9H-purine-9-acetamide]	247.3 to 247.4 °C
Cc1noc(C)c1S(=O)(=O)Nc1ccccc1Cn1cnc2c(-c3ccco3)nc(N)nc21 [Example 239, 6-(2-Furyl)-9-(2-(3,5-dimethylisoxazol-4-ylsulphonylamino)benzyl)-9H-purine-2-amine]	251.4 to 253.1 °C
CC(=O)n1cnc2c(-c3ccco3)nc(N)nc21 [Example 34, 9-Acetyl-6-(2-furyl)-9H-purine-2-amine]	> 300 °C (dec.)
Cc1ccc(-c2nc(N)nc3c2ncn3Cc2ccccc2F)nc1 [Example 243, 9-(2-Fluorobenzyl)-6-(5-methyl-2-pyridinyl)-9H-purine-2-amine]	299.8 °C
COc1nc(-c2ccco2)c2ncn(COCC[Si](C)(C)C)c2n1	79.6 °C (dec.)
Nc1nc(-c2ccco2)c2ncn(C(=O)C3CCCCC3)c2n1 [Example 28, 9-Cyclohexylcarbonyl-6-(2-furyl)-9H-purine-2-amine]	> 300 °C (dec.)
Nc1nc(-c2ccco2)c2ncn(C(=O)N3CCCC3)c2n1 [Example 29, 6-(2-Furyl)-9-(1-pyrrolidinylcarbonyl)-9H-purine-2-amine]	> 300 °C (dec.)
CC(C)(C)c1ccc(S(=O)(=O)n2cnc3c(-c4ccco4)nc(N)nc32)cc1 [Example 27, 9-(4-tert-Butylphenylsulphonyl)-6-(2-furyl)-9H-purine-2-amine]	238.7 to 239.2 °C
Nc1nc(-c2ccco2)c2ncn(CC(=O)NCCO)c2n1 [Example 96, 2-Amino-6-(2-furyl)-N-(2-hydroxyethyl)-9H-purine-9-acetamide]	> 250 °C (dec.)
NCCn1cnc2c(-c3ccco3)nc(N)nc21 [Example 257, 9-(2-Aminoethyl)-6-(2-furyl)-9H-purine-2-amine]	190 °C (dec.)
COc1ccccc1CNC(=O)Cn1cnc2c(-c3ccco3)nc(N)nc21 [Example 236, 2-Amino-6-(2-furyl)-N-(2-methoxybenzyl)-9H-purine-9-acetamide]	279.9 to 281 °C
Nc1nc(-c2ccc(Cl)s2)c2ncn(C(=O)NCc3ccccc3)c2n1 [Example 130, 2-Amino-N-benzyl-6-(5-chloro-2-thienyl)-9H-purine-9-carboxamide]	194 to 195 °C (dec.)
Nc1nc(-c2ccco2)c2ncn(C(=O)Oc3ccccc3)c2n1 [Example 22, Phenyl 2-amino-6-(2-furyl)-9H-purine-9-carboxylate]	> 300 °C (dec.)
N#Cc1cccc(Cn2cnc3c(-c4ccco4)nc(N)nc32)c1 [Example 177, 9-(3-Cyanobenzyl)-6-(2-furyl)-9H-purine-2-amine]	302.5 to 304.8 °C
Cn1cccc1-c1nc(N)nc2[nH]cnc12 [Example 133, 6-(1-Methyl-1H-pyrrol-2-yl)-1H-purine-2-amine]	> 240 °C (dec.)

SMILES	melting point
COC(=O)c1ccc(Cn2cnc3c(-c4ccco4)nc(N)nc32)cc1 [Example 215, Methyl 4-(2-amino-6-(2-furyl)-9H-purine-9-ylmethyl)benzoate]	219.5 to 219.7 °C
CS(=O)(=O)Nc1ccccc1Cn1cnc2c(-c3ccco3)nc(N)nc21 [Example 210, 6-(2-Furyl)-9-(2-methanesulphonylaminobenzyl)-9H-purine-2-amine]	254.7 to 255.3 °C
Cn1cncc1-c1nc(N)nc2[nH]cnc12 [Example 209, 6-(1-Methyl-1H-imidazol-5-yl)-1H-purine-2-amine]	300 °C (dec.)
Nc1nc(-c2ccco2)c2ncn(CC(=O)Nc3ccccc3)c2n1 [Example 85, 2-Amino-6-(2-furyl)-N-phenyl-9H-purine-9-acetamide]	289.1 to 289.7 °C
Cc1noc(C)c1Cn1cnc2c(-c3ccco3)nc(N)nc21 [Example 229, 9-(3,5-Dimethylisoxazol-4-ylmethyl)-6-(2-furyl)-9H-purine-2-amine]	282.4 to 282.6 °C
CC(C)COC(=O)n1cnc2c(-c3ccco3)nc(N)nc21 [Example 20, 2-Methylpropyl 2-amino-6-(2-furyl)-9H-purine-9-carboxylate]	> 300 °C (dec.)
Cn1cccc1-c1nc(N)nc2c1ncn2C(=O)NCc1ccccc1 [Example 134, 2-Amino-N-benzyl-6-(1-methyl-1H-pyrrol-2-yl)-9H-purine-9-carboxamide]	> 230 °C (dec.)
Nc1nc(-c2cc3ccccc3o2)c2ncn(C(=O)NCc3ccccc3)c2n1 [Example 128, 2-Amino-6-(benzofuran-2-yl)-N-benzyl-9H-purine-9-carboxamide]	> 250 °C (dec.)
C=CCNc1nc(-c2ccco2)c2nc[nH]c2n1 [Example 17, N-Allyl-6-(2-furyl)-1H-purine-2-amine]	158.7 to 160.1 °C
CC(C)(C)OC(=O)n1ccc2c(Cn3cnc4c(-c5ccco5)nc(N)nc43)cccc21 [Example 270, tert-butyl 4-(2-amino-6-(2-furyl)-1H-purine-9-ylmethyl)indole-1-carboxylate]	190.4 to 190.5 °C
CCOC(=O)Cn1cnc2c(-c3ccco3)nc(N(C)C)nc21 [Example 71, Ethyl 2-dimethylamino-6-(2-furyl)-9H-purine-9-acetate]	180.6 to 181.8 °C
Nc1nc(-c2ccco2)c2ncn(Cc3cccc(C(=O)NCc4ccccc4)c3)c2n1 [Example 226, 3-(2-Amino-6-(2-furyl)-9H-purine-9-ylmethyl)-N-benzylbenzamide]	243.2 to 243.8 °C
Cc1ccccc1NC(=O)Cn1cnc2c(-c3ccco3)nc(N)nc21 [Example 140, 2-Amino-6-(2-furyl)-N-(2-methylphenyl)-9H-purine-9-acetamide]	299.2 to 299.3 °C
Cc1nc(-c2nc(N)nc3[nH]cnc23)no1 [Example 90, 6-(5-Methyl-[1,2,4]-oxadiazol-3-yl)-1H-purine-2-amine]	> 200 °C (dec.)
CN1CCN(C(=O)Cn2cnc3c(-c4ccco4)nc(N)nc32)CC1 [Example 97, 6-(2-Furyl)-9-(2-oxo-2-(4-methyl-1-piperazinyl)ethyl)-9H-purine-2-amine]	> 270 °C (dec.)
CCNC(=O)n1cnc2c(-c3ccco3)nc(N)nc21 [Example 24, 2-Amino-N-ethyl-6-(2-furyl)-9H-purine-9-carboxamide]	> 280 °C (dec.)
CNC(=O)Cn1cnc2c(-c3ccco3)nc(N)nc21 [Example 89, 2-Amino-6-(2-furyl)-N-methyl-9H-purine-9-acetamide]	290.2 to 291.6 °C
Nc1nc(-c2ccco2)c2ncn(CC(=O)Nc3cccnc3)c2n1 [Example 143, 2-Amino-6-(2-furyl)-N-(3-pyridyl)-9H-purine-9-acetamide]	285.6 to 286.4 °C
CC(C)CC(=O)n1cnc2c(-c3ccco3)nc(N)nc21 [Example 33, 6-(2-Furyl)-9-(3-methylbutyryl)-9H-purine-2-amine]	175.4 to 176.1 °C
CSc1nc(-c2ccco2)c2ncn(C(=O)OC(C)(C)C)c2n1 [Example 12, tert-Butyl 6-(2-furyl)-2-methylthio-9H-purine-9carboxylate]	112 to 113 °C
C[Si](C)(C)CCOCn1cnc2c(-c3ccco3)nc(Cl)nc21	105.8 to 106.2 °C
Clc1nc(-c2ccco2)c2nc[nH]c2n1 [Example 8, 2-Chloro-6-(2-furyl)-1H-purine]	> 303 °C (dec.)
CC(C)(C)NC(=O)n1cnc2c(-c3ccco3)nc(N)nc21 [Example 21, 2-Amino-N-tert-butyl-6-(2-furyl)-9H-purine-9-carboxamide]	295 °C (dec.)
C[Si](C)(C)CCOCn1cnc2c(-c3ccco3)nc(NCCO)nc21	125.9 to 126.4 °C
CC(C)(C)OC(=O)n1cnc2c(-c3ccco3)nc(N)nc21 [Example 14, tert-Butyl 2-amino-6-(2-furyl)-9H-purine-9-carboxylate]	143.2 to 144.1 °C
OCCNc1nc(-c2ccco2)c2nc[nH]c2n1 [Example 5, N-(2-Hydroxyethyl)-6-(2-furyl)-1H-purine-2-amine]	227.1 to 228.1 °C
